# Key:
# Assay in all cases: relative viability (nuclei count vs DMSO), 5 days (fraction); higher = more cells survive
# RO-3306 = compound: C1=CC2=C(C=CC(=C2)C=C3C(=O)NC(=NCC4=CC=CS4)S3)N=C1 [RO-3306]
# Summary of the method: (§1)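 Vehicle-anchored 1536-well plates of lung cancer cell lines, held overnight at 37 °C, were pinned with five library-drug doses (not always all listed) spaced by √10. No medium change followed over the next 5 days, after which the cells were fixed, permeabilised and Hoechst-stained together and imaged at 4×. Nuclei were counted with MetaXpress, and viability is treated-well nuclei over vehicle-well nuclei, taken as a median across plates. Plates passed with control CV below 25% and at least one doubling.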
# Foretinib = compound: COc1cc2c(Oc3ccc(NC(=O)C4(C(=O)Nc5ccc(F)cc5)CC4)cc3F)ccnc2cc1OCCCN1CCOCC1 [Foretinib] (anchor plate); conditions: 0.25 µM
# Summary of the method: as §1
# [1] = compound: O=S(=O)(c1ccccc1)N(CC(F)(F)F)c1ccc(C(O)(C(F)(F)F)C(F)(F)F)cc1
# Summary of the method: as §1
# RO-3306 + Bortezomib = compound: C1=CC2=C(C=CC(=C2)C=C3C(=O)NC(=NCC4=CC=CS4)S3)N=C1 [RO-3306] + CC(C)C[C@H](NC(=O)[C@H](Cc1ccccc1)NC(=O)c1cnccn1)B(O)O [Bortezomib] (partner 0.002 µM)
# Summary of the method: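 Lung cancer cell lines were seeded in 1536-well plates and dosed by pin tool the next day, with either a single drug or a fixed anchor-drug dose combined with five library-drug doses (not always all listed) spaced in √10 steps. Five days later, one step fixed the cells and stained their nuclei (final 0.05% Triton X-100, 1% formaldehyde, 1 ug/ml Hoechst), and nuclei were counted on 4× images. Relative viability is the nuclei count in treated wells divided by the count in vehicle wells, and each value is the median of duplicate plates.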
Cell Line,relative viability (RO-3306; 0.01 µM),relative viability (RO-3306; 0.03162 µM),relative viability (RO-3306; 0.1 µM),relative viability (RO-3306; 0.3162 µM),relative viability (RO-3306; 1 µM),relative viability (Foretinib),relative viability ([1]; 0.8 µM),relative viability ([1]; 2.53 µM),relative viability ([1]; 8 µM),relative viability (RO-3306 + Bortezomib; first compound 0.01 µM),relative viability (RO-3306 + Bortezomib; first compound 0.03162 µM),relative viability (RO-3306 + Bortezomib; first compound 0.1 µM),relative viability (RO-3306 + Bortezomib; first compound 0.3162 µM),relative viability (RO-3306 + Bortezomib; first compound 1 µM)
NCI-H2085,0.985,0.936,0.98,1.05,0.995,1.01,0.967,0.908,0.929,1.09,0.956,0.935,0.993,1.04
LOU-NH91,0.931,0.914,0.934,0.918,0.852,0.94,0.984,0.968,1.05,0.557,0.491,0.441,0.483,0.442
NCI-H1975,1.09,0.804,0.869,0.997,0.91,0.958,1.09,0.943,0.95,0.468,0.358,0.343,0.417,0.243
NCI-H23,0.958,0.715,0.837,1.03,1.02,0.969,1.09,1.07,1.15,1.04,0.755,1.1,0.944,0.773
NCI-H1703,1.17,0.837,0.969,0.751,0.906,0.347,0.846,0.776,0.696,0.646,0.261,0.349,0.203,0.289
HCC-366,1.12,0.951,0.966,1.09,1.06,0.942,1.12,0.979,0.983,1.05,0.633,1.01,1.16,1.06
LCLC-103H,1.01,0.935,1.02,0.998,0.923,0.805,1.09,0.966,1.07,1.06,1.03,1.01,0.927,0.815
HCC-827,1.02,0.955,1.03,1.03,1.06,0.976,1.1,1.02,0.975,0.995,0.907,1.13,1.02,1.04
NCI-H2347,1.19,0.882,1.05,1,1,0.902,1.08,1.01,1.04,1.07,0.633,0.98,0.823,0.711
PC-3 [JPC-3],1.03,0.929,1.03,1.01,1.06,1.01,1.06,1.06,1,0.936,0.82,0.965,0.865,0.805
NCI-H1651,0.978,0.875,0.994,1.03,0.934,0.763,1.05,0.965,0.944,0.887,0.877,0.923,0.853,0.858
NCI-H1563,0.966,0.887,0.936,0.993,0.953,0.93,0.95,1.02,0.947,0.921,0.75,0.787,0.939,0.753
NCI-H3122,1.05,0.99,1.01,1.05,1.04,0.93,0.99,0.977,1.08,0.952,1.01,1.06,1.03,0.738
IA-LM,1.05,0.683,0.89,1.05,0.869,1.13,0.924,0.829,0.756,0.86,0.8,0.745,0.6,0.969
LC-2-ad,0.955,0.85,0.929,1.02,0.95,0.973,0.992,0.936,0.892,1.1,0.976,0.965,1.09,0.712
NCI-H650,0.834,0.803,0.938,0.992,0.945,1.02,0.946,0.814,0.989,0.662,0.635,0.703,0.764,0.694
LXF-289,1.01,1,1.01,1.02,1,0.991,0.949,0.882,0.843,0.992,0.928,1.05,0.95,0.929
HCC-78,1.09,0.878,0.981,1.02,0.924,0.587,0.892,0.786,0.851,0.433,0.362,0.511,0.572,0.543
NCI-H2009,1.03,0.955,0.983,1.02,1,1.22,0.977,0.862,0.891,0.994,0.82,1,1.06,1
